Data: patent US12054495B2, “Substituted macrocyclic compounds and related methods of treatment” (Alkermes, Inc., priority 2019, dated 2024)
pEC50: −log10 of the molar value.

What follows are compounds tested against T1, human orexin-2 receptor (OX2R) (Homo sapiens, UniProt O43614) (assay: Human OX2R IP1 assay). Details: T-Rex CHO cells stably overexpressing human OX2R, IP1 accumulation, 1 hr at 37 degrees C; mean EC50; ∧ = racemic mixture.
T1 construct: expressed in transfected cells
T1 sequence (O43614 1-444): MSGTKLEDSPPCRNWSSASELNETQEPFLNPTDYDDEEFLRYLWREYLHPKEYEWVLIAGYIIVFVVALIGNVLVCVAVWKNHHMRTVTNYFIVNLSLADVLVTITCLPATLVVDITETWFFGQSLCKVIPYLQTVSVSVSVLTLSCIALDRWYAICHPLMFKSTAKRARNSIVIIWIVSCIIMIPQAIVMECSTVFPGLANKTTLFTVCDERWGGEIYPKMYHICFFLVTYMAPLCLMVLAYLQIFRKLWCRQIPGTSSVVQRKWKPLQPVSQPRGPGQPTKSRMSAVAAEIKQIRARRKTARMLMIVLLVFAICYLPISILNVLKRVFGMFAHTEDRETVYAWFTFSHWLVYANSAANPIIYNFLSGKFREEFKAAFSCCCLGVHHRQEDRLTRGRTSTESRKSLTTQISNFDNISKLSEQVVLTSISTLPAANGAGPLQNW
Assay type: cell-based
Description: T-Rex CHO cells stably overexpressing the human orexin-2 receptor (OX2R) were induced overnight with 1 μg/mL of doxycycline in a T225 flask. 24 hours post induction, cells were lifted with accutase and plated into a 384-well proxy plate at 30,000 cells/well. Cells were then treated with different test compounds in 1× stimulation buffer containing 10 mM Hepes, 1 mM CaCl2), 0.5 mM MgCl2, 4.2 mM KCl, 146 mM NaCl, 5.5 mM glucose, and 50 mM LiCl, pH 7.4, for 1 hr at 37 degrees C. Following incubation, the reaction was terminated by the addition of detection mix, which is composed of IP1-d2 and anti-IP1-cryptate diluted in lysis buffer as well as 1× stimulation buffer. The plates were allowed to incubate for 1 hour at room temperature and were then read in the EnVision® multimode plate reader, measuring inositol phosphate levels.
Cisbio IP1 is a cell-based functional assay quantifying the accumulation of inositol monophosphate (IP), a metabolite released as a result of orexin 2 receptor activation through the phospholipase C-Gq signaling pathway. This is a competitive immunoassay in which the IP1 produced by the cells upon receptor activation competes with the IP1 analog coupled to the d2 fluorophore (acceptor) for binding to an anti-IP1 monoclonal antibody labeled with Eu cryptate (donor). The measured HTRF-FRET based signal is inversely proportional to the IP1 concentration produced.
The EC50 values reported in Table 2 were obtained according to the human OX2R IP1 assay described above. Data are the mean EC50 values ±S.E.M. The compound methyl (2R,3S)-3-((methylsulfonyl)amino)-2-(((cis-4-phenylcyclohexyl)oxy)methyl)-piperidine-1-carboxylate is a reference compound which is disclosed in Example 5 of PCT publication no. WO2017/135306.
Work on `CS(=O)(=O)N[C@H]1CCCN2C(=O)CCOc3ccccc3[C@H]3CC[C@H](CC3)OC[C@@H]12` [Compound 1] yielded a pEC50 greater than 7.00.
With `CS(=O)(=O)N[C@H]1CCCN2C(=O)COc3ccccc3[C@H]3CC[C@H](CC3)OC[C@@H]12` [Compound 2] the pEC50 was greater than 7.00.
`CS(=O)(=O)N[C@H]1CCCN2C(=O)CCCCOc3ccccc3[C@H]3CC[C@H](CC3)OC[C@@H]12` [Compound 3] was tested, and the pEC50 was less than 6.00.
`CS(=O)(=O)N[C@H]1CCCN2C(=O)CCCOc3ccccc3[C@H]3CC[C@H](CC3)OC[C@@H]12` [Compound 4] gave a pEC50 greater than 7.00.
Compound `CS(=O)(=O)N[C@H]1CCCN2CCCOc3ccccc3[C@H]3CC[C@H](CC3)OC[C@@H]12` [Compound 5] has a pEC50 of less than 6.00.
`CS(=O)(=O)N[C@H]1CCCN2CCOc3ccccc3[C@H]3CC[C@H](CC3)OC[C@@H]12` [Compound 6] gave a pEC50 greater than 7.00.
For `CS(=O)(=O)N[C@H]1CCN2C(=O)COc3ccccc3[C@H]3CC[C@H](CC3)OC[C@@H]12` [Compound 7], the pEC50 was greater than 7.00.
Compound `CS(=O)(=O)N[C@H]1CCCN2C(=O)CCc3ccccc3[C@H]3CC[C@H](CC3)OC[C@@H]12` [Compound 10] has a pEC50 of 6.00 to 7.00.
Work on `CS(=O)(=O)N[C@H]1CCCN2C(=O)COc3c(F)cccc3[C@H]3CC[C@H](CC3)OC[C@@H]12` [Compound 11] yielded a pEC50 greater than 7.00.
`CS(=O)(=O)N[C@H]1CCCN2C(=O)COc3c(F)cc(F)cc3[C@H]3CC[C@H](CC3)OC[C@@H]12` [Compound 12] was tested, and the pEC50 was greater than 7.00.
In the case of `CS(=O)(=O)N[C@H]1CCCN2CCOc3c(F)cccc3[C@H]3CC[C@H](CC3)OC[C@@H]12` [Compound 13], the pEC50 was 6.00 to 7.00.
With `CS(=O)(=O)N[C@H]1CCN2C(=O)COc3ncccc3[C@H]3CC[C@H](CC3)OC[C@@H]12` [Compound 18] the pEC50 was 6.00 to 7.00.
With `CC1(C)Oc2ccccc2[C@H]2CC[C@H](CC2)OC[C@H]2[C@@H](NS(C)(=O)=O)CCCN2C1=O` [Compound 36] the pEC50 was greater than 7.00.
In the case of `CS(=O)(=O)N[C@H]1CCN2CCOc3ccccc3[C@H]3CC[C@H](CC3)OC[C@@H]12` [Compound 39], the pEC50 was less than 6.00.
`CS(=O)(=O)N[C@H]1CCCN2C(=O)C(F)(F)Oc3ccccc3[C@H]3CC[C@H](CC3)OC[C@@H]12` [Compound 40] gave a pEC50 greater than 7.00.
Work on `CS(=O)(=O)N[C@H]1CCCN2CC(F)(F)Oc3ccccc3[C@H]3CC[C@H](CC3)OC[C@@H]12` [Compound 41] yielded a pEC50 of less than 6.00.
Work on `CS(=O)(=O)N[C@H]1CCN2C(=O)COc3c(F)cccc3[C@H]3CC[C@H](CC3)OC[C@@H]12` [Compound 42] yielded a pEC50 greater than 7.00.
In the case of `CS(=O)(=O)N[C@H]1CCN2C(=O)COc3c(F)cc(F)cc3[C@H]3CC[C@H](CC3)OC[C@@H]12` [Compound 43], the pEC50 was greater than 7.00.
`CC1(C)CN2CCC[C@H](NS(C)(=O)=O)[C@@H]2CO[C@H]2CC[C@H](CC2)c2ccccc2O1` [Compound 44] showed a pEC50 of 6.00 to 7.00.
With `CS(=O)(=O)N[C@H]1CCCN2C(=O)COc3ncccc3[C@H]3CC[C@H](CC3)OC[C@@H]12` [Compound 46] the pEC50 was greater than 7.00.
`CS(=O)(=O)N[C@H]1CCCN2C(=O)COc3ccc(Cl)cc3[C@H]3CC[C@H](CC3)OC[C@@H]12` [Compound 51] showed a pEC50 greater than 7.00.
Compound `CS(=O)(=O)N[C@H]1CCCN2C(=O)C(F)(F)Oc3c(F)cc(F)cc3[C@H]3CC[C@H](CC3)OC[C@@H]12` [Compound 52] has a pEC50 greater than 7.00.
Work on `CS(=O)(=O)N[C@H]1CCN2C(=O)C(F)(F)Oc3ccccc3[C@H]3CC[C@H](CC3)OC[C@@H]12` [Compound 53] yielded a pEC50 greater than 7.00.
For `CS(=O)(=O)N[C@H]1CCN2C(=O)C(F)(F)Oc3c(F)cc(F)cc3[C@H]3CC[C@H](CC3)OC[C@@H]12` [Compound 54], the pEC50 was greater than 7.00.
`CS(=O)(=O)N[C@H]1CCCN2C(=O)COc3nccnc3[C@H]3CC[C@H](CC3)OC[C@@H]12` [Compound 55] gave a pEC50 greater than 7.00.
For `CS(=O)(=O)N[C@H]1CCCN2C(=O)COc3nnccc3[C@H]3CC[C@H](CC3)OC[C@@H]12` [Compound 56], the pEC50 was 6.00 to 7.00.
Compound `CS(=O)(=O)N[C@H]1CCCN2C(=O)COc3ccc(Br)cc3[C@H]3CC[C@H](CC3)OC[C@@H]12` [Compound 57] has a pEC50 greater than 7.00.
In the case of `CS(=O)(=O)N[C@H]1CCCN2CCOc3c(F)cc(F)cc3[C@H]3CC[C@H](CC3)OC[C@@H]12` [Compound 58], the pEC50 was 6.00 to 7.00.
